Measurements taken from US20240158446A1, “CYCLIC COMPOUND HAVING SELECTIVE INHIBITORY ACTION ON KRAS OVER HRAS AND NRAS” (CHUGAI SEIYAKU KABUSHIKI KAISHA, priority 2021, published 2024).

Experiments:
[1] = target: GDP-bound NRAS wild-type protein (Homo sapiens, UniProt P01111); assay: Binding to NRAS by surface plasmon resonance (SPR), Single Cycle Kinetics; details: for NRAS/KRAS (ratio of KD value with respect to GDP-bound NRAS wild-type protein to KD value with respect to KRAS): SPR KD ratio NRAS/KRAS, class symbols; for NRAS/KRAS (ratio of KD value for NRAS to KD value for KRAS): SPR, GDP-bound NRAS wild-type protein vs GDP-bound KRAS wild-type protein
GDP-bound NRAS wild-type protein, sequence (P01111 whole entry): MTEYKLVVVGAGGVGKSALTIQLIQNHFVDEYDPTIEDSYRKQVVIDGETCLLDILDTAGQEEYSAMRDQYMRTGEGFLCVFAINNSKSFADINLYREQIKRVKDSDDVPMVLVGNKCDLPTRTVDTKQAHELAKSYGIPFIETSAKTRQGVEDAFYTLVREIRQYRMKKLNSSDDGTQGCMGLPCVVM

[2] = target: GDP-bound HRAS wild-type protein (Homo sapiens, UniProt P01112); assay: Binding to HRAS by surface plasmon resonance (SPR), Single Cycle Kinetics; details: for HRAS/KRAS (ratio of KD value with respect to GDP-bound HRAS wild-type protein to KD value with respect to KRAS): SPR KD ratio HRAS/KRAS, class symbols; for HRAS/KRAS (ratio of KD value for HRAS to KD value for KRAS): SPR, GDP-bound HRAS wild-type protein vs GDP-bound KRAS wild-type protein
GDP-bound HRAS wild-type protein, sequence (P01112 whole entry): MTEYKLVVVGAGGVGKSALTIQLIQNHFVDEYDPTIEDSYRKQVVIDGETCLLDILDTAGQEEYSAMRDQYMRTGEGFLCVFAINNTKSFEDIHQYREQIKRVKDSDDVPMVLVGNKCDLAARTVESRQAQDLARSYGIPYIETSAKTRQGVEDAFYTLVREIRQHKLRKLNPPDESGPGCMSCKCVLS

SMILES | NRAS/KRAS (ratio of KD value with respect to GDP-bound NRAS wild-type protein to KD value with respect to KRAS) [1] | HRAS/KRAS (ratio of KD value with respect to GDP-bound HRAS wild-type protein to KD value with respect to KRAS) [2] | NRAS/KRAS (ratio of KD value for NRAS to KD value for KRAS) [1] | HRAS/KRAS (ratio of KD value for HRAS to KD value for KRAS) [2]
CCOC[C@H]1C(=O)N[C@@H]([C@@H](C)CC)C(=O)N(C)CC(=O)N(C)[C@H]2C/C=C\CCN(C2=O)[C@@H](Cc2ccc3c(c2)CCC3(F)F)C(=O)N(C)CC(=O)N[C@@H](CCc2ccc(C(F)(F)F)c(OC)c2)C(=O)N2C[C@@H](C)C[C@H]2C(=O)NC2(CC(C)(C)C2)C(=O)N(C)[C@@H](C2CCCC2)C(=O)N(C)[C@H](C(=O)N(C)CC)CC(=O)N1C [PP2704] | B (a compound having 3 or more and less than 10 is denoted as B) | B (a compound having 3 or more and less than 10 is denoted as B) | – | –
CCC[C@@H]1C[C@H]2C(=O)NC3(CCCC3)C(=O)N(C)[C@@H](C3CCCC3)C(=O)N(C)[C@H](C(=O)N(C)C)CC(=O)N(C)[C@@H](CC(C)C)C(=O)N[C@@H]([C@@H](C)CC)C(=O)N(C)CC(=O)N(C)[C@H]3C/C=C\CCN(C3=O)[C@@H](Cc3ccc(C)cc3)C(=O)N(C)CC(=O)N[C@@H](CCc3cc(F)c(C(F)(F)F)c(F)c3)C(=O)N2C1 [PP2193] | – | – | A (a compound having 10 or more and less than 20 is denoted as A) | A (a compound having 10 or more and less than 20 is denoted as A)
CCO[C@@H]1C[C@H]2C(=O)NC3(CC(C)(C)C3)C(=O)N(C)[C@@H](C3CCCC3)C(=O)N(C)[C@H](C(=O)N(C)C)CC(=O)N(C)[C@H]3CCCCC/C=C/c4ccc(cc4)C[C@@H](C(=O)N(C)CC(=O)N[C@@H](CCc4ccc(Cl)c(Cl)c4)C(=O)N2C1)N1CC/C=C\C[C@@H](C1=O)N(C)C(=O)CN(C)C(=O)[C@H]([C@@H](C)CC)NC3=O [PP3057] | – | – | A (a compound having 10 or more and less than 20 is denoted as A) | B (a compound having 3 or more and less than 10 is denoted as B)
CCCN1C(=O)CN(C)C(=O)CN(C)C(=O)[C@H]([C@@H](C)CC)NC(=O)[C@@H]2CCCCOc3ccc(cc3)C[C@H]1C(=O)N(C)CC(=O)N[C@@H](CCc1cc(F)c(C(F)(F)F)c(F)c1)C(=O)N1C[C@H](OCC)C[C@H]1C(=O)NC1(CCCC1)C(=O)N(C)[C@@H](C1CCCC1)C(=O)N(C)[C@H](C(=O)N(C)C)CC(=O)N2C [PP0894] | – | – | C (A compound having a KD ratio of 0.1 or more and less than 3 is denoted as C) | C (A compound having a KD ratio of 0.1 or more and less than 3 is denoted as C)
CCC[C@H]1C(=O)N[C@@H]([C@@H](C)CC)C(=O)N(C2CC2)CC(=O)N(C)[C@H]2C/C=C\CCN(C2=O)[C@@H](Cc2ccc(C(F)(F)F)cc2)C(=O)N(C)CC(=O)N[C@@H](CCc2cc(F)c(C(F)(F)F)c(F)c2)C(=O)N2C[C@H](OCC)C[C@H]2C(=O)NC2(CC(C)(C)C2)C(=O)N(C)[C@@H](CC(C)(C)C)C(=O)N(C)[C@H](C(=O)N(C)C)CC(=O)N1C [PP2742] | AA (a compound having 20 or more is denoted as AA) | A (a compound having 10 or more and less than 20 is denoted as A) | – | –
CCCC[C@H]1C(=O)N[C@@H]([C@@H](C)CC)C(=O)N(C)CC(=O)N(C)[C@H]2C/C=C\CCN(C2=O)[C@@H](Cc2ccc(C(F)(F)F)cc2)C(=O)N(C)CC(=O)N[C@@H](CCc2ccc(C(F)(F)F)c(Cl)c2)C(=O)N2C[C@H](OCC)C[C@H]2C(=O)NC2(CCC2)C(=O)N(C)[C@@H](C2CCCC2)C(=O)N(C)[C@H](C(=O)N(C)CC)CC(=O)N1C [PP2841] | A (a compound having 10 or more and less than 20 is denoted as A) | A (a compound having 10 or more and less than 20 is denoted as A) | – | –
CCC[C@H]1C(=O)N[C@@H](C2CCCC2)C(=O)N(C)CC(=O)N(C)[C@H]2C/C=C\CCN(C2=O)[C@@H](Cc2ccc(C)cc2)C(=O)N(C)CC(=O)N[C@@H](CCc2ccc(C(F)(F)F)c(OC)c2)C(=O)N2CC3(CC3)C[C@H]2C(=O)NC2(CC(C)(C)C2)C(=O)N(C)[C@@H](C2CCCC2)C(=O)N(C)[C@H](C(=O)N(C)C)CC(=O)N1C [PP2994] | – | – | AA (a compound having 20 or more is denoted as AA) | A (a compound having 10 or more and less than 20 is denoted as A)
CC[C@H](C)[C@@H]1NC(=O)[C@H](CC(C)C)N(C)C(=O)C[C@@H](C(=O)N2CCOCC2)N(C)C(=O)[C@H](C2CCCC2)N(C)C(=O)C2(CCC2)NC(=O)[C@@H]2[C@H](O)CCN2C(=O)[C@H](CCc2cc(F)c(C(F)(F)F)c(F)c2)NC(=O)CN(C)C(=O)[C@H](Cc2ccc(C(F)(F)F)cc2)N2CCCCC[C@@H](C2=O)N(C)C(=O)CN(C)C1=O [PP0873] | – | – | A (a compound having 10 or more and less than 20 is denoted as A) | B (a compound having 3 or more and less than 10 is denoted as B)
